Assay results as given in US4689345A, “Oxygenated alkyl substituted bicyclo alkanes” (CBD Corporation, priority 1986, dated 1987).
“Also recorded” adds a separate entry of the source.

Key:
[1] = system: human fibroblast cells; assay: Elastin production by fibroblast cells; type: cell-based
From the text: (§1) Experiments generally following the methodology of Boote et al., Biochimica et Biophysica Acta, Volume 607, pages 145-160 (1980), have shown that while control human fibroblast cells have copious collagen production, treatment with the compounds of the invention provides human fibroblast cells with suppressed collagen production and with an about 30% increase in elastin production over control cells.
(§2) Wrinkling of the skin involves the decreased formation of elastin and the increased formation of collagen by supporting cells, predominantly the fibroblasts.

[2] = system: human fibroblast cells; assay: Collagen production by fibroblast cells; type: cell-based; conditions: treated vs control cells
From the text: as §1, §2

[3] = system: estrogen receptor (keloid cytosol); assay: Keloid cytosol steroid binding assay, estrogen; parameters: species or system human

Row | Compound | formation of elastin ([1]; Example 45) | increase in elastin production over control cells ([1]; treated vs control (non-treated) fibroblast cells) | collagen production/formation [2] | estrogen binding, male patients ([3]; male patients) | Binding of Estrogen ([3]; patient 1) | Binding of Estrogen ([3]; patient 2)
1 | CCOC(CC)CCCCC1CCC2CC(=O)CC12 (stereo not drawn) [Compound VI, 2-(5-ethoxyhept-1-yl)bicyclo[3.3.0]octan-7-one] | massive observable increase in the formation of elastin | ~30% | decrease in collagen production; also recorded: decreased | – | – | –
2 | Estrogen | – | – | – | neither detectable | 9 | 4
